Organism: Rattus norvegicus
Test: Open TG-GATES - Regimen: Single
Assay type: toxicity, organism-based, Sprague-Dawley
Parameters: regimen Single, gender Male, age 6 weeks
Details: in vivo, po, 0 mg/kg, route gavage, dose level Control; for APTT / Bas / Eos / Fbg / Hb / Ht / Lym / MCH / MCHC / MCV / Mono / Neu / PT / Plat / RBC / Ret / WBC: tissue Blood; for KIDNEY_L / KIDNEY_R / KIDNEY_TOTAL: tissue Kidney; for LIVER: tissue Liver; for A/G / ALP / ALT / AST / BUN / CRE / Ca / Cl / DBIL / GLC / IP / K / LDH / Na / PL / RALB / TBIL / TC / TG / TP / gamma-GTP: tissue Plasma

## CCOC(=O)CCC(=O)O[C@H]1[C@H](O[C@@H]2[C@@H](C)[C@H](O[C@H]3C[C@@](C)(OC)[C@@H](O)[C@H](C)O3)[C@@H](C)C(=O)O[C@H](CC)[C@@](C)(O)[C@H](O)[C@@H](C)C(=O)[C@H](C)C[C@@]2(C)O)O[C@H](C)C[C@@H]1N(C)C [ERYTHROMYCIN ETHYLSUCCINATE]
3 h
  TERMINAL_BW: 215 g
  APTT: 23.2 s
  Bas: 0%
  Eos: 1%
  Fbg: 292.2 mg/dL
  Hb: 13.2 g/dL
  Ht: 40.2%
  Lym: 81.2%
  MCH: 20.8 pg
  MCHC: 32.9%
  MCV: 63.2 fL
  Mono: 2%
  Neu: 15%
  PT: 16.3 s
  Plat: 112.7 x10_4/uL
  RBC: 635.6 x10_4/ul
  Ret: 7.9%
  WBC: 75.2 x10_2/uL
  KIDNEY_L: 0.9 g
  KIDNEY_R: 0.9 g
  KIDNEY_TOTAL: 1.8 g
  LIVER: 9.7 g
  A/G: 1.2
  ALP: 1728.4 IU/L
  ALT: 40.6 IU/L
  AST: 76.6 IU/L
  BUN: 14.6 mg/dL
  CRE: 0.2 mg/dL
  Ca: 10.4 mg/dL
  Cl: 103.2 meq/L
  DBIL: 0 mg/dL
  GLC: 188.2 mg/dL
  IP: 8.3 mg/dL
  K: 3.9 meq/L
  LDH: 159.2 IU/L
  Na: 139.4 meq/L
  PL: 140 mg/dL
  RALB: 2.9 g/dL
  TBIL: 0.012 mg/dL
  TC: 84.8 mg/dL
  TG: 55.4 mg/dL
  TP: 5.4 g/dL
  gamma-GTP: 1 IU/L
6 h
  TERMINAL_BW: 212.6 g
  APTT: 22.9 s
  Bas: 0%
  Eos: 0.6%
  Fbg: 321.8 mg/dL
  Hb: 13.8 g/dL
  Ht: 42.2%
  Lym: 75.8%
  MCH: 21.3 pg
  MCHC: 32.8%
  MCV: 65 fL
  Mono: 2.4%
  Neu: 20.2%
  PT: 15.8 s
  Plat: 121 x10_4/uL
  RBC: 651 x10_4/ul
  Ret: 7.6%
  WBC: 111.5 x10_2/uL
  KIDNEY_L: 0.9 g
  KIDNEY_R: 0.9 g
  KIDNEY_TOTAL: 1.9 g
  LIVER: 9.3 g
  A/G: 1.2
  ALP: 1491 IU/L
  ALT: 37.4 IU/L
  AST: 70.6 IU/L
  BUN: 9.6 mg/dL
  CRE: 0.2 mg/dL
  Ca: 10.3 mg/dL
  Cl: 103.4 meq/L
  DBIL: 0.002 mg/dL
  GLC: 190.6 mg/dL
  IP: 8.9 mg/dL
  K: 4.1 meq/L
  LDH: 138 IU/L
  Na: 139.6 meq/L
  PL: 139.8 mg/dL
  RALB: 3 g/dL
  TBIL: 0.02 mg/dL
  TC: 78.8 mg/dL
  TG: 67.6 mg/dL
  TP: 5.5 g/dL
  gamma-GTP: 1.2 IU/L
9 h
  TERMINAL_BW: 212 g
  APTT: 22.4 s
  Bas: 0%
  Eos: 0.6%
  Fbg: 319.6 mg/dL
  Hb: 13 g/dL
  Ht: 39.6%
  Lym: 81.2%
  MCH: 20.4 pg
  MCHC: 32.8%
  MCV: 62.2 fL
  Mono: 1.8%
  Neu: 15.4%
  PT: 15.9 s
  Plat: 118.3 x10_4/uL
  RBC: 636.4 x10_4/ul
  Ret: 7.4%
  WBC: 106.6 x10_2/uL
  KIDNEY_L: 1 g
  KIDNEY_R: 1 g
  KIDNEY_TOTAL: 1.9 g
  LIVER: 9 g
  A/G: 1.2
  ALP: 1414 IU/L
  ALT: 38.4 IU/L
  AST: 69.8 IU/L
  BUN: 10.8 mg/dL
  CRE: 0.2 mg/dL
  Ca: 10.5 mg/dL
  Cl: 103.6 meq/L
  DBIL: 0 mg/dL
  GLC: 190.8 mg/dL
  IP: 9.1 mg/dL
  K: 4.2 meq/L
  LDH: 161.4 IU/L
  Na: 139.2 meq/L
  PL: 124.4 mg/dL
  RALB: 2.9 g/dL
  TBIL: 0.016 mg/dL
  TC: 71.6 mg/dL
  TG: 51.6 mg/dL
  TP: 5.4 g/dL
  gamma-GTP: 1 IU/L
24 h
  TERMINAL_BW: 227 g
  APTT: 20.9 s
  Bas: 0%
  Eos: 1%
  Fbg: 327.8 mg/dL
  Hb: 13.5 g/dL
  Ht: 40.3%
  Lym: 83.8%
  MCH: 21.4 pg
  MCHC: 33.4%
  MCV: 64.2 fL
  Mono: 3.4%
  Neu: 11%
  PT: 15.9 s
  Plat: 111.9 x10_4/uL
  RBC: 629.4 x10_4/ul
  Ret: 7.8%
  WBC: 111 x10_2/uL
  KIDNEY_L: 1 g
  KIDNEY_R: 1 g
  KIDNEY_TOTAL: 2 g
  LIVER: 10.5 g
  A/G: 1.2
  ALP: 1574.2 IU/L
  ALT: 37.6 IU/L
  AST: 66.4 IU/L
  BUN: 17.8 mg/dL
  CRE: 0.1 mg/dL
  Ca: 10.5 mg/dL
  Cl: 106.6 meq/L
  DBIL: 0 mg/dL
  GLC: 211.4 mg/dL
  IP: 8.5 mg/dL
  K: 4.3 meq/L
  LDH: 191.4 IU/L
  Na: 143 meq/L
  PL: 156.2 mg/dL
  RALB: 3 g/dL
  TBIL: 0.024 mg/dL
  TC: 81.4 mg/dL
  TG: 119.4 mg/dL
  TP: 5.4 g/dL
  gamma-GTP: 1.2 IU/L
